# Experimental data reported in patent US6573262B2, “Composition and antiviral activity of substituted indoleoxoacetic piperazine derivatives” (priority 2000, dated 2003).
# Tested on: HIV-1 single-round infectious reporter virus
# Assay: microbe, parasite or virus in culture
# Assay type: cell-based
# Settings: for EC50: Human immunodeficiency virus 1, HeLa-CD4/CCR5, 72 h, read-out: EC50 Group from Table 1; for inhibition at 10 µM: Human immunodeficiency virus 1, HeLa-CD4/CCR5, read-out: % Inhibition @ 10 uM
SMILES,EC50 [nM],inhibition at 10 µM [%]
O=C(C(=O)N1CCN(C(=O)c2ccccc2)CC1)c1c[nH]c2c(C(=O)NS(=O)(=O)c3ccccc3)cccc12 [Example 62],1000 to 5000,74
CNC(=O)c1cc(-c2ccc(F)c3c(C(=O)C(=O)N4CCN(C(=O)c5ccccc5)CC4)c[nH]c23)[nH]n1 [Example 89],< 1000,–
N=C(NC1CC1)c1ccc(F)c2c(C(=O)C(=O)N3CCN(C(=O)c4ccccc4)CC3)c[nH]c12 [Example 75],< 1000,> 98
NC(=O)Cn1nnc(-c2ccc(F)c3c(C(=O)C(=O)N4CCN(C(=O)c5ccccc5)CC4)c[nH]c23)n1 [Example 104],< 1000,–
O=C(C(=O)N1CCN(C(=O)c2ccccn2)CC1)c1c[nH]c2c(-c3nnn(C(F)F)n3)ccc(F)c12 [Example 149],< 1000,–
CNC(=O)Cn1nnc(-c2ccc(F)c3c(C(=O)C(=O)N4CCN(C(=O)c5ccccc5)CC4)c[nH]c23)n1 [Example 71],< 1000,> 98
O=C(C(=O)N1CCN(C(=O)c2ccccc2)CC1)c1c[nH]c2c(-c3nnn(CCN4C(=O)c5ccccc5C4=O)n3)ccc(F)c12 [Example 113],< 1000,–
CNC(=O)c1c[nH]c(-c2ccc(F)c3c(C(=O)C(=O)N4CCN(C(=O)c5ccccc5)CC4)c[nH]c23)n1 [Example 147],< 1000,–
O=C(C(=O)N1CCN(C(=O)c2ccccc2)CC1)c1c[nH]c2c(-c3cnc[nH]3)ccc(F)c12 [Example 85],< 1000,–
COc1ccc(-c2ccc(F)cc2)c2[nH]cc(C(=O)C(=O)N3CCN(C(=O)c4ccccc4)CC3)c12 [Example 3],< 1000,> 98
Nc1cccc(C(=O)N2CCN(C(=O)C(=O)c3c[nH]c4c(-c5ncon5)ccc(F)c34)CC2)c1 [Example 151],< 1000,–
N/C(=N\O)c1ccc(F)c2c(C(=O)C(=O)N3CCN(C(=O)c4ccccc4)CC3)c[nH]c12 [Example 27],< 1000,> 98
C[C@@H]1CN(C(=O)c2ccccc2)CCN1C(=O)C(=O)c1c[nH]c2c(-c3nnn(C)n3)ccc(F)c12 [Example 175],–,> 98
O=C(C(=O)N1CCN(C(=O)c2ccccc2)CC1)c1c[nH]c2c(-n3ccnc3)ccc(F)c12 [Example 117],< 1000,–
COC(=O)Cn1cnc(-c2ccc(F)c3c(C(=O)C(=O)N4CCN(C(=O)c5ccccc5)CC4)c[nH]c23)n1 [Example 144],< 1000,–
O=C(C(=O)N1CCN(C(=O)c2ccccc2)CC1)c1c[nH]c2c(-c3nc4ccccc4[nH]3)ccc(F)c12 [Example 76],< 1000,> 98
O=C(NCCN1CCOCC1)c1ccc(F)c2c(C(=O)C(=O)N3CCN(C(=O)c4ccccc4)CC3)c[nH]c12 [Example 52],< 1000,> 98
O=C(C(=O)N1CCN(C(=O)c2ccccn2)CC1)c1c[nH]c2c(-c3ncon3)ccc(F)c12 [Example 191],< 1000,–
C=CCn1nnc(-c2ccc(F)c3c(C(=O)C(=O)N4CCN(C(=O)c5ccccc5)CC4)c[nH]c23)n1 [Example 26],< 1000,> 98
COC(=O)/C=C/c1ccc(F)c2c(C(=O)C(=O)N3CCN(C(=O)c4ccccc4)CC3)c[nH]c12 [Example 217],< 1000,–
COC(=O)CNc1nc(-c2ccc(F)c3c(C(=O)C(=O)N4CCN(C(=O)c5ccccc5)CC4)c[nH]c23)no1 [Example 140],< 1000,–
COc1ccc(-c2cc3ccccc3s2)c2[nH]cc(C(=O)C(=O)N3CCN(C(=O)c4ccccc4)CC3)c12 [Example 19],< 1000,> 98
CCN(CC)C(=O)COC(=O)c1cc(-c2ccc(F)c3c(C(=O)C(=O)N4CCN(C(=O)c5ccccc5)CC4)c[nH]c23)n[nH]1 [Example 120],< 1000,–

SMILES,EC50 [nM],inhibition at 10 µM [%]
C[C@@H]1CN(C(=O)c2ccccc2)CCN1C(=O)C(=O)c1c[nH]c2c(-c3ncon3)ccc(F)c12 [Example 181],< 1000,–
CC(C)Nc1nc(-c2ccc(F)c3c(C(=O)C(=O)N4CCN(C(=O)c5ccccc5)CC4)c[nH]c23)no1 [Example 158],< 1000,–
O=C(C(=O)N1CCN(C(=O)c2ccccc2)CC1)c1c[nH]c2c(-c3nc4ccccc4o3)ccc(F)c12 [Example 18],< 1000,> 98
Cc1n[nH]c(-c2ccc(F)c3c(C(=O)C(=O)N4CCN(C(=O)c5ccccc5)CC4)c[nH]c23)n1 [Example 78],< 1000,–
N=C(NN)c1ccc(F)c2c(C(=O)C(=O)N3CCN(C(=O)c4ccccc4)CC3)c[nH]c12 [Example 77],–,> 98
Cc1nc(-c2ccc(F)c3c(C(=O)C(=O)N4CCN(C(=O)c5ccccc5)C[C@H]4C)c[nH]c23)no1 [Example 178],< 1000,–
O=C(C(=O)N1CCN(C(=O)c2ccccn2)CC1)c1c[nH]c2c(-c3noc(C(Cl)(Cl)Cl)n3)ccc(F)c12 [Example 188],< 1000,–
O=C(C(=O)N1CCN(C(=O)c2ccccc2)CC1)c1c[nH]c2c(-c3nc4ncccc4[nH]3)ccc(F)c12 [Example 165],< 1000,–
O=C(Nc1ccccn1)c1ccc(F)c2c(C(=O)C(=O)N3CCN(C(=O)c4ccccc4)CC3)c[nH]c12 [Example 38],< 1000,> 98
N#CCCCn1nnc(-c2ccc(F)c3c(C(=O)C(=O)N4CCN(C(=O)c5ccccc5)CC4)c[nH]c23)n1 [Example 115],< 1000,–
CN(C)CCNC(=O)c1ccc(F)c2c(C(=O)C(=O)N3CCN(C(=O)c4ccccc4)CC3)c[nH]c12 [Example 44],< 1000,97
C[C@@H]1CN(C(=O)c2ccccc2)CCN1C(=O)C(=O)c1c[nH]c2c(-c3noc(C(F)(F)F)n3)ccc(F)c12 [Example 180],< 1000,–
NC(=O)c1ccc(F)c2c(C(=O)C(=O)N3CCN(C(=O)c4ccccn4)CC3)c[nH]c12 [Example 184],< 1000,–
CS(=O)(=O)NC(=O)c1cccc2c(C(=O)C(=O)N3CCN(C(=O)c4ccccc4)CC3)c[nH]c12 [Example 61],1000 to 5000,75
O=C(C(=O)N1CCN(C(=O)c2ccccc2)CC1)c1c[nH]c2c(-c3noc(C(Cl)(Cl)Cl)n3)ccc(F)c12 [Example 81],< 1000,–
O=C(NCc1cccs1)c1ccc(F)c2c(C(=O)C(=O)N3CCN(C(=O)c4ccccc4)CC3)c[nH]c12 [Example 51],< 1000,> 98
C[C@@H]1CN(C(=O)c2ccccc2)CCN1C(=O)C(=O)c1c[nH]c2c(-c3nn[nH]n3)ccc(F)c12 [Example 33],< 1000,> 98
O=C(C(=O)N1CCN(C(=O)c2ccccc2F)CC1)c1c[nH]c2c(-c3ncon3)ccc(F)c12 [Example 150C],< 1000,–
"C[C@@H]1CN(C(=O)c2ccccc2)CCN1C(=O)C(=O)C1CNc2c(C(=O)O)cccc21 (stereo partly drawn) [Example 215, 1-benzoyl-3-(R)-methyl-4-[(7-carboxyindolin-3-yl)-2-oxoacetyl]piperazine]",< 1000,–
CCOC(=O)c1cc(-c2ccc(F)c3c(C(=O)C(=O)N4CCN(C(=O)c5ccccc5)CC4)c[nH]c23)[nH]n1 [Example 86],< 1000,–
Nc1nc(-c2ccc(F)c3c(C(=O)C(=O)N4CCN(C(=O)c5ccccc5)CC4)c[nH]c23)no1 [Example 83],< 1000,> 98
CC(C)(C)OC(=O)NNC(=O)c1ccc(F)c2c(C(=O)C(=O)N3CCN(C(=O)c4ccccc4)CC3)c[nH]c12 [Example 91],< 1000,–
